This note sets out measurements from patent publication US11739101B2, “Bifunctional degraders of hematopoietic progenitor kinase and therapeutic uses thereof” (Nurix Therapeutics, Inc., priority 2020, dated 2023).

Each structure is given as a SMILES string. Where only a bound is given, the exact number is not on record here.

T1 sequence (Q92918 whole entry): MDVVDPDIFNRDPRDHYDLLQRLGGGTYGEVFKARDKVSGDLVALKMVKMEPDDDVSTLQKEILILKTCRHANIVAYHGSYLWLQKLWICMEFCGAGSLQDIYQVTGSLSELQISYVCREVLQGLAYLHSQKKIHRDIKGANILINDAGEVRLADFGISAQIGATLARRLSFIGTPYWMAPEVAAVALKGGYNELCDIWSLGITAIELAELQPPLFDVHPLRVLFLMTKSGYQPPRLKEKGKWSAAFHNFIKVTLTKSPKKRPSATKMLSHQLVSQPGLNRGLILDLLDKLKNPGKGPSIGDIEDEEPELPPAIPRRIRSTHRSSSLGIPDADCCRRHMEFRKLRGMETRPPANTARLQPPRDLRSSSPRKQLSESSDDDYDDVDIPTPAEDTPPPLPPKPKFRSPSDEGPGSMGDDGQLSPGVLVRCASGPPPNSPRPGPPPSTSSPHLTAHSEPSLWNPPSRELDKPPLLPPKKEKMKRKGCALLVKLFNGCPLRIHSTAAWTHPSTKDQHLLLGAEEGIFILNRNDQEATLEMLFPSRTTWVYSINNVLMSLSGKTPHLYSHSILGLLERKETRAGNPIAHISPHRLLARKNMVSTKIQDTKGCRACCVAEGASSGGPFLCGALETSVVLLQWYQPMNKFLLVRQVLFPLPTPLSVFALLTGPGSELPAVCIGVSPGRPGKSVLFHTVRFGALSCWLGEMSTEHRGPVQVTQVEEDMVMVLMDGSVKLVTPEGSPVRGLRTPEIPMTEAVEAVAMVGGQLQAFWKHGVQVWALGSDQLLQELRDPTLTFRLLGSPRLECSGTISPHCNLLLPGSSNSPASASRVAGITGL

This experiment has as its target T1, HPK1 (Homo sapiens, UniProt Q92918).
T1 construct: A HiBiT tag was introduced by CRISPR on the N terminus of HPK1 in Jurkat cells; host or cells: Jurkat (ATCC TIB-152), monoclonal CRISPR HiBiT knock-in line
As to the kind of experiment: HPK1 Cellular HiBiT Degradation Assay. The experiment is classed as cell-based. Conditions: HiBiT-tagged HPK1 Jurkat cells, 24 hours, 10 uM to 0.1 nM; Dmax = 100 minus lowest % HPK1 remaining vs DMSO vehicle. In outline: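 Jurkat cells with CRISPR N-terminal HiBiT-tagged HPK1 were exposed to an 11-point 3.16-fold dilution series, 10 uM to 0.1 nM final, for 24 hours at 37° C./5% CO2. HPK1 was read by HiBiT lytic luminescence against DMSO as 100% and parental cells as background. Dmax is 100 minus the lowest % remaining from a four-parameter fit, with a parallel CellTiter-Glo viability check.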
A general note: The HiBiT peptide binds its large partner to form an active luciferase.
The term Dmax denotes the greatest extent of degradation seen. On to `Cc1cc(F)c(Nc2nc(-c3ccc4c(c3)N([C@H]3C[C@@H](N5CCCCC5)C3)C(=O)C43CCN(C(=O)C4CCN(CC5CCN(c6cccc7c6C(=O)N(C6CCC(=O)NC6=O)C7=O)CC5)CC4)CC3)cc3ncn(C(C)C)c23)cc1C(=O)NC(C)C` (stereo partly drawn) [Example 37, 5-{[6-(1′-{1-[(1-{2-[2,6-dioxopiperidin-3-yl]-1,3-dioxo-2,3-dihydro-1H-isoindol-4-yl}piperidin-4-yl)methyl]piperidine-4-carbonyl}-2-oxo-1-[(1s,3s)-3-(piperidin-1-yl)cyclobutyl]-1,2-dihydrospiro[indole-3,4′-piperidin]-6-yl)-3-(propan-2-yl)-3H-imidazo[4,5-c]pyridin-4-yl]amino}-4-fluoro-2-methyl-N-(propan-2-yl)benzamide], for which the Dmax was more than 65%.

`Cc1cc(F)c(Nc2nc(-c3ccc4c(c3)N([C@H]3C[C@@H](N5CCCCC5)C3)C(=O)C43CCN(C(=O)C4CCN(C(=O)[C@H]5CC[C@H](Nc6cccc7c6C(=O)N(C6CCC(=O)NC6=O)C7=O)CC5)CC4)CC3)cc3ncn(C(C)C)c23)cc1C(=O)NC(C)C` (stereo partly drawn) [Example 60, 4-fluoro-2-methyl-5-{[6-(2-oxo-1′-{1-[(1R,4R)-4-({2-[2,6-dioxopiperidin-3-yl]-1,3-dioxo-2,3-dihydro-1H-isoindol-4-yl}amino)cyclohexanecarbonyl]piperidine-4-carbonyl}-1-[(1s,3s)-3-(piperidin-1-yl)cyclobutyl]-1,2-dihydrospiro[indole-3,4′-piperidin]-6-yl)-3-(propan-2-yl)-3H-imidazo[4,5-c]pyridin-4-yl]amino}-N-(propan-2-yl)benzamide] displayed a Dmax of more than 65%.

Turning to `Cc1cc(F)c(Nc2nc(-c3ccc4c(c3)N([C@H]3C[C@@H](N5CCCCC5)C3)C(=O)C43CCN(C(=O)c4ccc(C(=O)N5CCN(c6cccc7c6C(=O)N(C6CCC(=O)NC6=O)C7=O)CC5)cc4)CC3)cc3ncn(C(C)C)c23)cc1C(=O)NC(C)C` (stereo partly drawn) [Example 95, 5-({6-[1′-(4-{4-[2-(2,6-dioxopiperidin-3-yl)-1,3-dioxoisoindol-4-yl]piperazine-1-carbonyl}benzoyl)-2-oxo-1-[(1s,3s)-3-(piperidin-1-yl)cyclobutyl]spiro[indole-3,4′-piperidin]-6-yl]-3-isopropylimidazo[4,5-c]pyridin-4-yl}amino)-4-fluoro-N-isopropyl-2-methylbenzamide], the Dmax was 45 to 65%.

In turn, `Cc1cc(F)c(Nc2nc(-c3ccc4c(c3)N([C@H]3C[C@@H](N5CCCCC5)C3)C(=O)C43CCN(C(=O)C4CCN(C(=O)[C@H]5CC[C@@H](Nc6cccc7c6C(=O)N(C6CCC(=O)NC6=O)C7=O)CC5)C4)CC3)cc3ncn(C(C)C)c23)cc1C(=O)NC(C)C` (stereo partly drawn) [Example 27, 4-fluoro-2-methyl-5-[(6-{2-oxo-1-[(1s,3s)-3-(piperidin-1-yl)cyclobutyl]-1′-[1-[(1S,4S)-4-({2-[2,6-dioxopiperidin-3-yl]-1,3-dioxo-2,3-dihydro-1H-isoindol-4-yl}amino)cyclohexanecarbonyl]pyrrolidine-3-carbonyl]-1,2-dihydrospiro[indole-3,4′-piperidin]-6-yl}-3-(propan-2-yl)-3H-imidazo[4,5-c]pyridin-4-yl)amino]-N-(propan-2-yl)benzamide] returned a Dmax of less than 45%.

Turning to `Cc1cc(F)c(Nc2nc(-c3ccc4c(c3)N(C3CC(N5CCCCC5)C3)C(=O)C43CCN(C(=O)CCOCCOCCOCCNc4ccc5c(c4)C(=O)N(C4CCC(=O)NC4=O)C5=O)CC3)cc3ncn(C(C)C)c23)cc1C(=O)NC(C)C` (stereo not drawn) [Example 5, 5-((6-(1′-(3-(2-(2-(2-((2-(2,6-dioxopiperidin-3-yl)-1,3-dioxoisoindolin-5-yl)amino)ethoxy)ethoxy)ethoxy)propanoyl)-2-oxo-1-((1s,3s)-3-(piperidin-1-yl)cyclobutyl)spiro[indoline-3,4′-piperidin]-6-yl)-3-isopropyl-3H-imidazo[4,5-c]pyridin-4-yl)amino)-4-fluoro-N-isopropyl-2-methylbenzamide], the Dmax is less than 45%.

As for `Cc1cc(F)c(Nc2nc(-c3ccc4c(c3)N([C@H]3C[C@@H](N5CCCCC5)C3)C(=O)C43CCN(C(=O)CCN4CCC(CCCCC(=O)N[C@H](C(=O)N5C[C@H](O)C[C@H]5C(=O)N[C@@H](C)c5ccc(-c6scnc6C)cc5)C(C)(C)C)CC4)CC3)cc3ncn(C(C)C)c23)cc1C(=O)NC(C)C` [Example 20, (2S,4R)-1-((S)-2-(5-(1-(3-(6-(4-((2-fluoro-5-(isopropylcarbamoyl)-4-methylphenyl)amino)-3-isopropyl-3H-imidazo[4,5-c]pyridin-6-yl)-2-oxo-1-((1s,3s)-3-(piperidin-1-yl)cyclobutyl)spiro[indoline-3,4′-piperidin]-1′-yl)-3-oxopropyl)piperidin-4-yl)pentanamido)-3,3-dimethylbutanoyl)-4-hydroxy-N—((S)-1-(4-(4-methylthiazol-5-yl)phenyl)ethyl)pyrrolidine-2-carboxamide], the Dmax is less than 45%.

Molecule `CC(=O)N1CCC2(CC1)C(=O)N([C@H]1C[C@@H](N3CCC[C@@H](C(=O)NCCCCCCCCCNc4ccc5c(c4)C(=O)N(C4CCC(=O)NC4=O)C5=O)C3)C1)c1cc(-c3cc4ncn(C(C)C)c4c(Nc4cc(C(=O)NC(C)C)c(C)cc4F)n3)ccc12` (stereo partly drawn) [Example 15, (3R)-1-((1s,3s)-3-(1′-acetyl-6-(4-((2-fluoro-5-(isopropylcarbamoyl)-4-methylphenyl)amino)-3-isopropyl-3H-imidazo[4,5-c]pyridin-6-yl)-2-oxospiro[indoline-3,4′-piperidin]-1-yl)cyclobutyl)-N-(9-((2-(2,6-dioxopiperidin-3-yl)-1,3-dioxoisoindolin-5-yl)amino)nonyl)piperidine-3-carboxamide] gave a Dmax of less than 45%.

Consider `Cc1cc(F)c(Nc2nc(-c3ccc4c(c3)N([C@H]3C[C@@H](N5CCCCC5)C3)C(=O)C43CCN(C(=O)CCCCCCCCCOc4cc(-c5scnc5C)ccc4CNC(=O)[C@@H]4C[C@@H](O)CN4C(=O)[C@@H](NC(=O)C4(F)CC4)C(C)(C)C)CC3)cc3ncn(C(C)C)c23)cc1C(=O)NC(C)C` [Example 6, (2S,4R)—N-(2-((10-(6-(4-((2-fluoro-5-(isopropylcarbamoyl)-4-methylphenyl)amino)-3-isopropyl-3H-imidazo[4,5-c]pyridin-6-yl)-2-oxo-1-((1s,3s)-3-(piperidin-1-yl)cyclobutyl)spiro[indoline-3,4′-piperidin]-1′-yl)-10-oxodecyl)oxy)-4-(4-methylthiazol-5-yl)benzyl)-1-((S)-2-(1-fluorocyclopropane-1-carboxamido)-3,3-dimethylbutanoyl)-4-hydroxypyrrolidine-2-carboxamide], for which the Dmax is less than 45%.

As for `Cc1cc(F)c(Nc2nc(-c3ccc4c(c3)N([C@H]3C[C@@H](N5CCCCC5)C3)C(=O)C43CCN(C(=O)c4ccc(C(=O)N5C6CCC5CN(c5ccc7c(c5)C(=O)N(C5CCC(=O)NC5=O)C7=O)C6)cc4)CC3)cc3ncn(C(C)C)c23)cc1C(=O)NC(C)C` (stereo partly drawn) [Example 93, 5-({6-[1′-(4-{3-[2-(2,6-dioxopiperidin-3-yl)-1,3-dioxoisoindol-5-yl]-3,8-diazabicyclo[3.2.1]octane-8-carbonyl}benzoyl)-2-oxo-1-[(1s,3s)-3-(piperidin-1-yl)cyclobutyl]spiro[indole-3,4′-piperidin]-6-yl]-3-isopropylimidazo[4,5-c]pyridin-4-yl}amino)-4-fluoro-N-isopropyl-2-methylbenzamide], the Dmax is 45 to 65%.

Regarding `Cc1cc(F)c(Nc2nc(-c3ccc4c(c3)N(C3CC(N5CCCCC5)C3)C(=O)C43CCN(C(=O)CCCCCCCCCC(=O)N[C@H](C(=O)N4C[C@H](O)C[C@H]4C(=O)N[C@@H](C)c4ccc(-c5scnc5C)cc4)C(C)(C)C)CC3)cc3ncn(C(C)C)c23)cc1C(=O)NC(C)C` (stereo partly drawn) [Example 8, (2S,4R)-1-((S)-2-(11-(6-(4-((2-fluoro-5-(isopropylcarbamoyl)-4-methylphenyl)amino)-3-isopropyl-3H-imidazo[4,5-c]pyridin-6-yl)-2-oxo-1-((1s,3s)-3-(piperidin-1-yl)cyclobutyl)spiro[indoline-3,4′-piperidin]-1′-yl)-11-oxoundecanamido)-3,3-dimethylbutanoyl)-4-hydroxy-N—((S)-1-(4-(4-methylthiazol-5-yl)phenyl)ethyl)pyrrolidine-2-carboxamide], the “Cellular HPK1 HiBiT: Dmax (%)” value is “A (A>65%)”.

`Cc1cc(F)c(Nc2nc(-c3ccc4c(c3)N([C@H]3C[C@@H](N5CCCCC5)C3)C(=O)C43CCN(C(=O)c4ccc(N(C)C5CCN(c6ccc7c(c6)C(=O)N(C6CCC(=O)NC6=O)C7=O)CC5)cc4)CC3)cc3ncn(C(C)C)c23)cc1C(=O)NC(C)C` (stereo partly drawn) [Example 97, 5-{[6-(1′-{4-[(1-{2-[2,6-dioxopiperidin-3-yl]-1,3-dioxoisoindol-5-yl}piperidin-4-yl)(methyl)amino]benzoyl}-2-oxo-1-[(1s,3s)-3-(piperidin-1-yl)cyclobutyl]spiro[indole-3,4′-piperidin]-6-yl)-3-isopropylimidazo[4,5-c]pyridin-4-yl]amino}-4-fluoro-N-isopropyl-2-methylbenzamide]: the Dmax lay in the range of 45 to 65%.

`Cc1cc(F)c(Nc2nc(-c3ccc4c(c3)N([C@H]3C[C@@H](N5CCCCC5)C3)C(=O)C43CCN(C(=O)C4CN(CC5CCN(c6cccc7c6C(=O)N(C6CCC(=O)NC6=O)C7=O)CC5)C4)CC3)cc3ncn(C(C)C)c23)cc1C(=O)NC(C)C` (stereo partly drawn) [Example 33, 5-{[6-(1′-{1-[(1-{2-[2,6-dioxopiperidin-3-yl]-1,3-dioxo-2,3-dihydro-1H-isoindol-4-yl}piperidin-4-yl)methyl]azetidine-3-carbonyl}-2-oxo-1-[(1s,3s)-3-(piperidin-1-yl)cyclobutyl]-1,2-dihydrospiro[indole-3,4′-piperidin]-6-yl)-3-(propan-2-yl)-3H-imidazo[4,5-c]pyridin-4-yl]amino}-4-fluoro-2-methyl-N-(propan-2-yl)benzamide] registered a Dmax of more than 65%.
